Experimental data from patent US20150148234A1, “HERBICIDE-RESISTANT SUNFLOWER PLANTS WITH MULTIPLE HERBICIDE RESISTANT ALLELES OF AHASL1 AND METHODS OF USE” (NIDERA S.A., priority 2013, published 2015).

What was measured:
[1] = test system: sunflower entry 3-hybrid (WT × IMI restorer, A205V hetero); test: field phytotoxicity trial North Dakota 2006 (Example 3); format: in vivo
Procedure: (§1) • Spray volume: 10 gallons per acre (GPA) (or 100 liters/ha) for backpack sprayer or 20 GPA (or 200 liters/ha) for tractor mounted boom • Growth Stage at Herbicide Application: 2-4 leaves • Entry 15 (WT Maintainer line) was left unsprayed in all treatment blocks.
(§2) Phytotoxicity ratings were assessed at 7 and 21 days following herbicide application.
(§3) The data was subjected to an ANOVA analysis and the means from the 3 repetitions are presented in Table 7 (phytotoxicity at 7 days post-treatment) and Table 8 (phytotoxicity at 21 days post-treatment).

[2] = test system: sunflower entry 8-hybrid (WT × GM40 restorer, A122T hetero); test: as above; format: in vivo
Procedure: as §1, §2, §3

[3] = test system: sunflower entry 9-line (GM40 restorer, A122T homo); test: as above; format: in vivo
Procedure: as §1, §2, §3

[4] = test system: sunflower entry 14-hybrid (GM40 CMS × GM40 restorer, A122T homo); test: as above; format: in vivo
Procedure: as §1, §2, §3

[5] = test system: sunflower entry 4-line (IMI Restorer, A205V homo); test: as above; format: in vivo
Procedure: as §1, §2, §3

[6] = test system: sunflower entry 6-hybrid (IMI CMS × IMI restorer, A205V homo); test: as above; format: in vivo
Procedure: as §1, §2, §3

[7] = test system: sunflower entry 7-hybrid (WT-CMS × IMI restorer, A205V hetero); test: as above; format: in vivo
Procedure: as §1, §2, §3

[8] = test system: sunflower entry 11-hybrid (GM40 CMS × IMI restorer, A205V/A122T hetero/double); test: as above; format: in vivo
Procedure: as §1, §2, §3

[9] = test system: sunflower entry 1-hybrid (WT × IMI restorer, A205V hetero); test: as above; format: in vivo
Procedure: as §1, §2, §3

[10] = test system: sunflower entry 12-hybrid (IMI CMS × GM40 restorer, A205V/A122T hetero/double); test: as above; format: in vivo
Procedure: as §1, §2, §3

[11] = test system: sunflower entry 15-hybrid (WT × GM40 restorer, A122T hetero); test: as above; format: in vivo
Procedure: as §1, §2, §3

[12] = test system: sunflower entry 10-hybrid (IMI CMS × GM40 restorer, A205V/A122T hetero/double); test: as above; format: in vivo
Procedure: as §1, §2, §3

[13] = test system: sunflower entry 16-hybrid (WT × GM40 restorer, A122T hetero); test: as above; format: in vivo
Procedure: as §1, §2, §3

[14] = test system: sunflower entry 13-hybrid (GM40 CMS × GM40 restorer, A122T homo); test: as above; format: in vivo
Procedure: as §1, §2, §3

[15] = test system: AHAS enzyme of A122T/A205V heterozygous hybrid (IA9 × R733); test: AHAS enzyme activity assay, Set 1; format: biochemical, sunflower; details: 100 μM, Set 1 (FIG. 13)
Procedure: (§4) Twelve greenhouse grown sunflower plants from each of the lines depicted in Table 21 were bulked and subjected to an AHAS enzyme activity assay via the method of Singh et al. (1988) Anal. Biochem. 171:173-179. Each activity assay was repeated twice. Due to the large number of samples, the experiment was split into two sets (Table 21).
(§5) Young, actively growing leaves, from four week old plantlets, were ground in a mortar and pestle with liquid N2 and extracted with a buffer composed of 100 mM Pyruvate, 200 mM KH2PO4, 20 mM MgCl2, 2 mM thiamine pyrophosphate and […]. Plant extracts were then spun through a 10 mL Zeba™ TM desalt spin column (Pierce #89893) as per the manufacturer's recommendation. The inhibition assay was performed as described by Singh et al. (1988) Anal. Biochem. 171:173-179. Assays were conducted in a 96-well format. Fifty μl of inhibitor was added to each well containing 50 μl of soluble protein extract to give final concentrations of 0.78, 1.56, 3.125, 6.25, 12.5, 25, 50 and 100 μM imazamox or 0.78, 1.56, 3.125, 6.25, 12.5, 25, 50 and 100 μM imazapyr. Zero herbicide controls were also included for each line. Reactions were processed as outlined by Singh et al. (1988) Anal. Biochem. 171:173-179. Absorbance was measured at 530 nm. AHAS activity, expressed as the mean of the absorbance values for each treatment, was presented as a percentage of the mean of the zero-herbicide controls.

[16] = test system: AHAS enzyme of A205V homozygous hybrid (IA9 × RHA426); test: AHAS enzyme activity assay, Set 1; format: biochemical, sunflower; details: A205V homozygous hybrids; 100 μM; Set 1 (FIG. 13)
Procedure: as §4, §5

[17] = test system: AHAS enzyme of A122T homozygous hybrid (cmsGM40 × R733); test: AHAS enzyme activity assay, Set 1; format: biochemical, sunflower; details: 100 μM, Set 1 (FIG. 13)
Procedure: as §4, §5

[18] = 7 DAT, 160 g ai/ha imazapyr + 0.25% NIS
[19] = 21 DAT, 160 g ai/ha imazapyr + 0.25% NIS
[20] = 7 DAT, 50 g ai/ha imazamox + 0.25% NIS
[21] = 7 DAT, 100 g ai/ha imazamox + 0.25% NIS
[22] = 7 DAT, 200 g ai/ha imazamox + 0.25% NIS
[23] = 21 DAT, 50 g ai/ha imazamox + 0.25% NIS
[24] = 21 DAT, 100 g ai/ha imazamox + 0.25% NIS
[25] = 21 DAT, 200 g ai/ha imazamox + 0.25% NIS

CC(C)C1(C)N=C(c2ncccc2C(=O)O)NC1=O (stereo not shown) [imazapyr]
Phytotoxicity Rating (% Crop Injury) [1, 18]: 35.0% | Phytotoxicity Rating (% Crop Injury) [1, 19]: 43.3% | Phytotoxicity Rating (% Crop Injury) [2, 18]: 13.3% | Phytotoxicity Rating (% Crop Injury) [2, 19]: 11.7% | Phytotoxicity Rating (% Crop Injury) [3, 18]: 8.3% | Phytotoxicity Rating (% Crop Injury) [3, 19]: 5.0% | Phytotoxicity Rating (% Crop Injury) [4, 18]: 8.3% | Phytotoxicity Rating (% Crop Injury) [4, 19]: 3.3% | Phytotoxicity Rating (% Crop Injury) [5, 18]: 11.7% | Phytotoxicity Rating (% Crop Injury) [5, 19]: 6.7% | Phytotoxicity Rating (% Crop Injury) [6, 18]: 8.3% | Phytotoxicity Rating (% Crop Injury) [6, 19]: 3.3% | Phytotoxicity Rating (% Crop Injury) [7, 18]: 21.7% | Phytotoxicity Rating (% Crop Injury) [7, 19]: 36.7% | Phytotoxicity Rating (% Crop Injury) [8, 18]: 3.3% | Phytotoxicity Rating (% Crop Injury) [8, 19]: 0.0% | Phytotoxicity Rating (% Crop Injury) [9, 18]: 16.7% | Phytotoxicity Rating (% Crop Injury) [9, 19]: 20.0% | Phytotoxicity Rating (% Crop Injury) [10, 18]: 5.0% | Phytotoxicity Rating (% Crop Injury) [10, 19]: 1.7% | Phytotoxicity Rating (% Crop Injury) [11, 18]: 8.3% | Phytotoxicity Rating (% Crop Injury) [11, 19]: 21.7% | Phytotoxicity Rating (% Crop Injury) [12, 18]: 3.3% | Phytotoxicity Rating (% Crop Injury) [12, 19]: 0.0% | Phytotoxicity Rating (% Crop Injury) [13, 18]: 10.0% | Phytotoxicity Rating (% Crop Injury) [13, 19]: 23.3% | Phytotoxicity Rating (% Crop Injury) [14, 18]: 5.0% | Phytotoxicity Rating (% Crop Injury) [14, 19]: 1.7% | AHAS activity, % of untreated control [15]: 60% | AHAS activity, % of untreated control [16]: 42% | AHAS activity, % of untreated control [17]: 64%

COCc1cnc(C2=NC(C)(C(C)C)C(=O)N2)c(C(=O)O)c1 (stereo not shown) [imazamox]
Phytotoxicity Rating (% Crop Injury) [1, 20]: 11.7% | Phytotoxicity Rating (% Crop Injury) [1, 21]: 46.7% | Phytotoxicity Rating (% Crop Injury) [1, 22]: 60.0% | Phytotoxicity Rating (% Crop Injury) [1, 23]: 11.7% | Phytotoxicity Rating (% Crop Injury) [1, 24]: 46.7% | Phytotoxicity Rating (% Crop Injury) [1, 25]: 76.7% | Phytotoxicity Rating (% Crop Injury) [2, 20]: 13.3% | Phytotoxicity Rating (% Crop Injury) [2, 21]: 13.3% | Phytotoxicity Rating (% Crop Injury) [2, 22]: 25.0% | Phytotoxicity Rating (% Crop Injury) [2, 23]: 6.7% | Phytotoxicity Rating (% Crop Injury) [2, 24]: 11.7% | Phytotoxicity Rating (% Crop Injury) [2, 25]: 28.3% | Phytotoxicity Rating (% Crop Injury) [3, 20]: 1.7% | Phytotoxicity Rating (% Crop Injury) [3, 21]: 5.0% | Phytotoxicity Rating (% Crop Injury) [3, 22]: 10.0% | Phytotoxicity Rating (% Crop Injury) [3, 23]: 0.0% | Phytotoxicity Rating (% Crop Injury) [3, 24]: 0.0% | Phytotoxicity Rating (% Crop Injury) [3, 25]: 3.3% | Phytotoxicity Rating (% Crop Injury) [4, 20]: 5.0% | Phytotoxicity Rating (% Crop Injury) [4, 21]: 6.7% | Phytotoxicity Rating (% Crop Injury) [4, 22]: 11.7% | Phytotoxicity Rating (% Crop Injury) [4, 23]: 0.0% | Phytotoxicity Rating (% Crop Injury) [4, 24]: 3.3% | Phytotoxicity Rating (% Crop Injury) [4, 25]: 5.0% | Phytotoxicity Rating (% Crop Injury) [5, 20]: 6.7% | Phytotoxicity Rating (% Crop Injury) [5, 21]: 6.7% | Phytotoxicity Rating (% Crop Injury) [5, 22]: 18.3% | Phytotoxicity Rating (% Crop Injury) [5, 23]: 5.0% | Phytotoxicity Rating (% Crop Injury) [5, 24]: 6.7% | Phytotoxicity Rating (% Crop Injury) [5, 25]: 15.0% | Phytotoxicity Rating (% Crop Injury) [6, 20]: 5.0% | Phytotoxicity Rating (% Crop Injury) [6, 21]: 8.3% | Phytotoxicity Rating (% Crop Injury) [6, 22]: 26.7% | Phytotoxicity Rating (% Crop Injury) [6, 23]: 0.0% | Phytotoxicity Rating (% Crop Injury) [6, 24]: 3.3% | Phytotoxicity Rating (% Crop Injury) [6, 25]: 21.7% | Phytotoxicity Rating (% Crop Injury) [7, 20]: 13.3% | Phytotoxicity Rating (% Crop Injury) [7, 21]: 43.3% | Phytotoxicity Rating (% Crop Injury) [7, 22]: 56.7% | Phytotoxicity Rating (% Crop Injury) [7, 23]: 3.3% | Phytotoxicity Rating (% Crop Injury) [7, 24]: 40.0% | Phytotoxicity Rating (% Crop Injury) [7, 25]: 78.3% | Phytotoxicity Rating (% Crop Injury) [8, 20]: 0.0% | Phytotoxicity Rating (% Crop Injury) [8, 21]: 3.3% | Phytotoxicity Rating (% Crop Injury) [8, 22]: 11.7% | Phytotoxicity Rating (% Crop Injury) [8, 23]: 0.0% | Phytotoxicity Rating (% Crop Injury) [8, 24]: 0.0% | Phytotoxicity Rating (% Crop Injury) [8, 25]: 3.3% | Phytotoxicity Rating (% Crop Injury) [9, 20]: 8.3% | Phytotoxicity Rating (% Crop Injury) [9, 21]: 35.0% | Phytotoxicity Rating (% Crop Injury) [9, 22]: 48.3% | Phytotoxicity Rating (% Crop Injury) [9, 23]: 6.7% | Phytotoxicity Rating (% Crop Injury) [9, 24]: 25.0% | Phytotoxicity Rating (% Crop Injury) [9, 25]: 73.3% | Phytotoxicity Rating (% Crop Injury) [10, 20]: 10.0% | Phytotoxicity Rating (% Crop Injury) [10, 21]: 10.0% | Phytotoxicity Rating (% Crop Injury) [10, 22]: 11.7% | Phytotoxicity Rating (% Crop Injury) [10, 23]: 3.3% | Phytotoxicity Rating (% Crop Injury) [10, 24]: 3.3% | Phytotoxicity Rating (% Crop Injury) [10, 25]: 3.3% | Phytotoxicity Rating (% Crop Injury) [11, 20]: 10.0% | Phytotoxicity Rating (% Crop Injury) [11, 21]: 11.7% | Phytotoxicity Rating (% Crop Injury) [11, 22]: 16.7% | Phytotoxicity Rating (% Crop Injury) [11, 23]: 6.7% | Phytotoxicity Rating (% Crop Injury) [11, 24]: 11.7% | Phytotoxicity Rating (% Crop Injury) [11, 25]: 30.0% | Phytotoxicity Rating (% Crop Injury) [12, 20]: 3.3% | Phytotoxicity Rating (% Crop Injury) [12, 21]: 3.3% | Phytotoxicity Rating (% Crop Injury) [12, 22]: 10.0% | Phytotoxicity Rating (% Crop Injury) [12, 23]: 0.0% | Phytotoxicity Rating (% Crop Injury) [12, 24]: 0.0% | Phytotoxicity Rating (% Crop Injury) [12, 25]: 1.7% | Phytotoxicity Rating (% Crop Injury) [13, 20]: 10.0% | Phytotoxicity Rating (% Crop Injury) [13, 21]: 15.0% | Phytotoxicity Rating (% Crop Injury) [13, 22]: 23.3% | Phytotoxicity Rating (% Crop Injury) [13, 23]: 6.7% | Phytotoxicity Rating (% Crop Injury) [13, 24]: 16.7% | Phytotoxicity Rating (% Crop Injury) [13, 25]: 31.7% | Phytotoxicity Rating (% Crop Injury) [14, 20]: 3.3% | Phytotoxicity Rating (% Crop Injury) [14, 21]: 5.0% | Phytotoxicity Rating (% Crop Injury) [14, 22]: 10.0% | Phytotoxicity Rating (% Crop Injury) [14, 23]: 0.0% | Phytotoxicity Rating (% Crop Injury) [14, 24]: 1.7% | Phytotoxicity Rating (% Crop Injury) [14, 25]: 3.3% | AHAS activity, % of untreated control [15]: 59% | AHAS activity, % of untreated control [16]: 36% | AHAS activity, % of untreated control [17]: 69%
